System: Catharanthus roseus
Assay: Split-root Catharanthus roseus seedlings: Root A stimulated, exudates analysed by MRM-LC-MS/MS
Format: in vivo
Settings: applied to Root A; Root B exudate a week after stimulation; FIG. 16B
Experimental: Split roots are generated by cutting off the primary root. Lateral roots are then regenerated until they are long enough for the lateral roots to be placed directly in separate hydroponics or aeroponics containers. Each container is fed with plant medium.
Catharanthus roseus were grown, and split roots were obtained using the methods of Example 2. After lateral roots emerged, roots were aseptically placed separately in two 20 ml glass containers containing 0.5× Hoagland nutrient solution. Similar to Example 8, Root A of seedlings was stimulated with methyl-jasmonate, while growing in hydroponics using plant nutrient medium. Plants were incubated at 24° C. with a photoperiod of 16 h. A week after stimulation, the plant medium containing exudates from Root A and B were collected, filtered and extracted for LC-MS analysis. FIG. 16A depicts the MRM-LC-MS/MS analysis of C. roseus exudates. Vinca alkaloids present in the exudates of Root B after methyl jasmonate stimulation (FIG. 16A, top) and control plants (FIG. 16A, bottom) were analyzed via total ion current chromatograms. The quantification of three vinca alkaloids (19S-Vindolinine_RT_3.93, Vindolinine_RT_4.96, and Catarantine_11.77) was performed using an external standard curve of these three metabolites (FIG. 16B). […]

Compound: CC/C=C\CC1C(=O)CCC1CC(=O)OC (stereo not shown) [Methyl jasmonate, methyl jasmonate]
- Vindolinine found in Root B exudate of treated plants, fold increase: up to 32 ×
